Experimental data as given in US20040003429A1, “Pest control system” (priority 2000, published 2004).
Where two headings read alike, the source gives them in different places.

Columns and labels:
[1] = test system: Drosophila melanogaster (strain OR/R); experiment: survival of flies after insecticide treatment (FIG. 1); format: in vivo; conditions: 16 h after insecticide-treatment
[2] = test system: Ceratitis capitata (strain Benakeion); experiment: as above; format: in vivo; conditions: 16 h after insecticide-treatment
[3] = test system: acetylcholinesterase (AchE); conditions: cited from earlier work
[4] = test system: tobacco budworm Heliothis virescens; conditions: cited from earlier work
[5] = test system: adult boll weevil Anthonomus granids Boheman; conditions: cited from earlier work
[6] = test system: nicotinergic acetylcholine receptor (nAcR); conditions: relative to imidacloprid; cited from earlier work
housefly = conditions: relative to imidacloprid; cited from earlier work
[7] = test system: mixed function oxidase system; conditions: in vitro mixed function oxidase system; cited from earlier work

COP(=O)(NC(C)=O)SC (stereo not drawn) [Acephate, O, S dimethyl acetylphosphoramidothicate]
activity compared to Methamidophos [1]: less active | sensitivity of flies ((%) survival) [1]: sensitive | activity compared to Methamidophos [2]: less active | sensitivity of flies ((%) survival) [2]: sensitive | AchE inhibition [3]: not an AchE inhibitor | activity in the tobacco budworm ([4]; acephate compared with methamidophos): comparable activity | methamidophos observed in budworm larvae ([4]; within 2 hours of a topical acephate application): small amount of methamidophos

COP(N)(=O)SC (stereo not drawn) [Methamidophos, O, S-dimethyl phosphoramidothicate]
sensitivity of flies ((%) survival) [1]: sensitive | sensitivity of flies ((%) survival) [2]: sensitive | fold more toxic than acephate [5]: 75 fold | AchE inhibition [3]: potent acetylcholinesterase (AchE) inhibitor | activity in the tobacco budworm ([4]; in vivo): comparable activity

CN1CCN(Cc2ccc(Cl)nc2)C1=N[N+](=O)[O-] [N-Me-imidacloprid]
decrease of binding affinity to nAcR [6]: 100 fold | potency in the housefly (housefly): as potent as imidacloprid | conversion to imidacloprid [7]: can be converted to imidacloprid
